According to PubChem BioAssay (NCI):
Where “and” joins values, the source holds several entries; their conditions need not be identical. Equal entries are not always repeated.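 Grown in 96-well plates, cells were treated for 48 hours with each compound at five concentrations. Insufficient inhibition: endpoint recorded as highest concentration tested. GI50 marks 50% less growth. TGI: total growth inhibition.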

Experiments:
Experiment in all cases: NCI tumour cell line growth inhibition, 48 h
DMS 114 small cell lung = test system: DMS 114 small cell lung
SNB-78 CNS = test system: SNB-78 CNS
LXFL 529 NSCLC = test system: LXFL 529 NSCLC
XF 498 CNS = test system: XF 498 CNS
M19-MEL melanoma = test system: M19-MEL melanoma
HOP-18 NSCLC = test system: HOP-18 NSCLC
RXF-631 renal = test system: RXF-631 renal
DMS 273 small cell lung = test system: DMS 273 small cell lung
MDA-N = test system: MDA-N
SN12K1 renal = test system: SN12K1 renal
P388 leukemia = test system: P388 leukemia
P388/ADR leukemia = test system: P388/ADR leukemia

SMILES | TGI (DMS 114 small cell lung) | TGI (SNB-78 CNS) | TGI (LXFL 529 NSCLC) | TGI (XF 498 CNS) | TGI (M19-MEL melanoma) | TGI (HOP-18 NSCLC) | TGI (RXF-631 renal) | TGI (DMS 273 small cell lung) | TGI (MDA-N) | also measured
NC(=O)NC1C(C(=O)O)N(Cc2ccccc2)C(=O)N1Cc1ccccc1 (stereo unspecified) | > 100 µM | > 100 µM | > 100 µM | > 100 µM | > 100 µM | – | – | – | – | –
CC([O-])=C1C(=O)c2ccccc2C1=O.CC([O-])=C1C(=O)c2ccccc2C1=O.CC[O-].CC[O-].[Ti+4] | > 100 µM | – | > 100 µM | – | – | > 100 µM | > 100 µM | > 100 µM | – | GI50 (HOP-18 NSCLC): > 100 µM; GI50 (DMS 114 small cell lung): > 100000 nM; GI50 (RXF-631 renal): > 100 µM; GI50 (LXFL 529 NSCLC): 87.5 µM; GI50 (DMS 273 small cell lung): > 100 µM
O=C1CCCCC12CCC/C2=N\O (stereo unspecified) | > 100 µM | > 100 µM | > 100 µM | – | > 100 µM | > 100 µM | > 100 µM | > 100 µM | – | –
CC(=O)NC(C=O)C(O[C@H](C)C(=O)NC(C)C(=O)NC(CCC(N)=O)C(=O)OCc1ccccc1)C(O)C(O)COC(=O)CCNc1c2ccccc2nc2cccc([N+](=O)[O-])c12 (stereo partly specified) | 10.7 µM | 14.4 µM | 3.58 µM | 3.71 µM | 4.02 µM | > 100 µM | – | 12 µM | – | –
COc1cccc(N2C(=O)C3C4C=C5c6ccccc6N(c6ccccc6)C5(C3C2=O)[C@H]2C(=O)N(c3cccc(OC)c3)C(=O)[C@@H]42)c1 (stereo partly specified) | > 100 µM | > 100 µM | > 100 µM | > 100 µM | > 100 µM | > 100 µM | > 100 µM | > 100 µM | – | –
O=C(O)c1c(Br)c(Br)c(Br)c(Br)c1C1c2ccc(O)cc2Oc2cc(O)ccc21 | – | – | – | – | – | – | – | – | > 100 µM | –
CCC1(CN(C)C)CC/C(=C\c2ccc(OC)c(OC)c2)C1=O (stereo unspecified) | > 100 µM | > 100 µM | > 100 µM | > 100 µM | > 100 µM | > 100 µM | > 100 µM | > 100 µM | – | –
COCCOCCOCCOc1cccc2c1C(=O)c1cccc(OCCOCCOCCOC)c1C2=O | > 100 µM | > 100 µM | > 100 µM | > 100 µM | > 100 µM | > 100 µM | > 100 µM | > 100 µM | – | –
CC(=O)c1ccc(NC(=O)C(=O)C(C#N)CC(C)(C)C=O)cc1 (stereo unspecified) | – | > 100 µM | > 100 µM | > 100 µM | > 100 µM | – | – | – | – | –
O=C(CC1C=Cc2ccccc2N1C(=O)c1ccccc1)c1ccccc1 (stereo unspecified) | – | – | – | – | – | – | – | – | 39 µM | –
O=C(CCCN1CCC(C(O)c2ccc(F)cc2)CC1)c1ccc(F)cc1 (stereo unspecified) | 108 µM | 123 µM | – | 15.1 µM | 115 µM | 142 µM | – | 118 µM | 116 µM | TGI (SN12K1 renal): 108 µM; TGI (P388 leukemia): 119 µM; TGI (P388/ADR leukemia): 141 µM
C=C(C(=C)P(=S)(C(C)C)C(C)C)P(=S)(C(C)C)C(C)C | > 100 µM | > 100 µM | > 100 µM | > 100 µM | > 100 µM | – | > 100 µM | > 100 µM | – | –
CC(=O)Nc1n[n+]([O-])c2cc(C)ccc2[n+]1[O-] | – | – | – | – | – | – | – | – | 14.9 µM | –
Cc1cc(Cl)ccc1C(=O)c1ccc2ccccc2c1C(=O)O | – | – | – | – | – | – | – | – | > 100 µM | –
CCCCCCCCCCCc1c(O)c(=O)c2c(oc3c(=O)c(CCCCCCCCCCC)c(O)c(=O)c3n2-c2ccc(N(C)C)cc2)c1=O | 57.7 µM | > 100 µM | 47.2 µM | 37.9 µM | – | 42.9 µM | – | 56.3 µM | – | –
COc1ccc(C(=O)C#Cc2c[nH]c(=O)[nH]c2=O)cc1 | 46.7 µM | 37.9 µM | 12.2 µM | – | 21.9 µM | > 50.1 µM | 34.1 µM | 30.4 µM | – | –
CC1OC(CC(=O)O)CC2=C1C(=O)c1c(O)cccc1C2=O (stereo unspecified) | 0.288 µM | 0.383 µM | 0.218 µM | 0.324 µM | 0.213 µM | 3.88 µM | 3.01 µM | 0.594 µM | 0.518 µM | –
O=c1c2cc3c(cc2c2cccc4c2n1CCC4)OCO3 | – | > 100 µM | > 100 µM | – | > 100 µM | > 100 µM | – | > 100 µM | – | –
COc1cc2oc3c(c(=O)c2c(O)c1/C=C/C(C)C)C(C=C(C)C)Oc1cc(O)ccc1-3 (stereo unspecified) | – | – | – | – | – | – | – | – | 31.9 µM | –
COc1ccc(NC(=O)CC(=O)n2nc(C)c(N=Nc3ccccc3C(=O)O)c2C)cc1 | > 100 µM | > 100 µM | > 100 µM | > 100 µM | > 100 µM | – | – | > 100 µM | – | –

SMILES | TGI (DMS 114 small cell lung) | TGI (SNB-78 CNS) | TGI (LXFL 529 NSCLC) | TGI (XF 498 CNS) | TGI (M19-MEL melanoma) | TGI (HOP-18 NSCLC) | TGI (RXF-631 renal) | TGI (DMS 273 small cell lung) | TGI (MDA-N) | also measured
Cn1cc(C(=O)c2ccccc2)cc(C(=O)c2ccccc2)c1=O | > 100 µM | > 100 µM | > 100 µM | > 100 µM | > 100 µM | – | > 100 µM | > 100 µM | – | –
O=[N+]([O-])c1cc2no[n+]([O-])c2cc1N1CCCCC1 | – | – | – | – | – | – | – | – | 7.06 µM | –
COc1cccc(SSc2cccc(OC)c2C(=O)O)c1C(=O)O | > 100 µM | > 100 µM | > 100 µM | > 100 µM | > 100 µM | > 100 µM | > 100 µM | > 100 µM | – | –
CC1=Nc2c([nH]c(=S)[nH]c2=O)NC(c2c(Cl)cccc2Cl)C1 (stereo unspecified) | 13.8 µM | 25 µM | 10.2 µM | 10.9 µM | 3.17 µM | 30.2 µM | 22.5 µM | 4.4 µM | 1.99 µM | –
COc1cc2ccnc3c(=C(SC)SC)c(=O)c(c1OC)c23 | 36 µM | – | 16.5 µM | – | 30.2 µM | 26.7 µM | 28.9 µM | 30.4 µM | – | –
CC(=O)c1ccc(NC(=O)COC(=O)c2cccc3c(=O)c4ccccc4[nH]c23)cc1 | > 100 µM | > 100 µM | > 100 µM | 55.5 µM | > 100 µM | > 100 µM | > 100 µM | – | – | –
O=C1OC(=O)C2C3C=CC(C12)C1C2C=CC2C31 (stereo unspecified) | – | – | > 100 µM | > 100 µM | > 100 µM | > 100 µM | > 100 µM | > 100 µM | – | –
O=c1cccc(-c2cccc(=O)[nH]2)[nH]1 | > 100 µM | > 100 µM | > 100 µM | – | > 100 µM | > 100 µM | > 100 µM | > 100 µM | – | –
CCN1C(=NCCO)NS(=O)(=O)c2ccccc21 | – | – | – | – | – | – | – | – | > 100 µM | –
CCOC(=O)Nc1cc2ccccc2c(N=Nc2ccccc2)c1O | – | – | – | – | – | – | – | – | > 100 µM | –
CC(=O)OC1=CC2(OC(C)=O)CC(C)(C)C1C1C(=O)C=CC(=O)C12 (stereo unspecified) | > 100 µM | > 100 µM | > 100 µM | > 100 µM | > 100 µM | – | > 100 µM | > 100 µM | > 100 µM | –
Cc1ccc(S(=O)(=O)N/N=C/C(C)C)cc1 | > 100 µM | > 100 µM | > 100 µM | – | > 100 µM | > 100 µM | > 100 µM | > 100 µM | – | –
COc1ccc2c(c1)-c1nn(CCCN(C)C)c3ccc([N+](=O)[O-])c(c13)N2 | 4.24 µM and 13.8 µM | – | – | 2.34 µM and 16.2 µM | 3.39 µM and 11.8 µM | 13.6 µM and 21 µM | – | 1.86 µM and 4.99 µM | 2.53 µM and 3.61 µM | TGI (SN12K1 renal): 0.682 µM; GI50 (DMS 114 small cell lung): 202 nM and 543 nM; TGI (P388 leukemia): 0.666 µM; GI50 (MDA-N): 159 nM and 503 nM; GI50 (XF 498 CNS): 443 nM and 2910 nM; TGI (P388/ADR leukemia): 0.925 µM; GI50 (M19-MEL melanoma): 255 nM and 545 nM
N#CC1=C(O)NC(O)=C(C#N)C1c1ccc(C2C(C#N)=C(O)NC(O)=C2C#N)cc1 | > 100 µM | > 100 µM | > 100 µM | > 100 µM | > 100 µM | > 100 µM | > 100 µM | > 100 µM | – | –
Cc1ccc(C2NC(=O)c3ccccc3N2)c(C)c1 (stereo unspecified) | – | – | – | – | – | – | – | – | 0.701 µM | –
OCCN(CCO)c1cccc(N(CCO)CCO)n1 | > 100 µM | > 100 µM | > 100 µM | > 100 µM | > 100 µM | – | > 100 µM | > 100 µM | – | –
Cc1ccc(NC(=O)CCc2n[nH]c(=S)o2)cc1 | > 100 µM | > 100 µM | > 100 µM | > 100 µM | > 100 µM | > 100 µM | > 100 µM | > 100 µM | – | –
Cc1c2c(c(C)c3c1[nH]c1ccccc13)CN(C)CC2 | 28.5 µM | 55.9 µM | 28.2 µM | – | 30.7 µM | > 100 µM | 89.7 µM | 34.3 µM | – | –
CC1(C)O[C@@H]2C[C@H]3[C@@H]4C[C@H](F)C5=CC(=O)C=C[C@]5(C)[C@@]4(F)[C@@H](O)C[C@]3(C)[C@]2(C(=O)CO)O1 | – | – | – | – | – | – | – | – | > 100 µM | –
CCC(C)C(=O)OCC(=O)c1ccc(-c2ccccc2)cc1 (stereo unspecified) | – | – | – | – | – | – | – | – | > 100 µM | –
